Assay results taken from patent publication US10774053B2, “HIV protease inhibitors” (Gilead Sciences, Inc., priority 2017, dated 2020).
Like-named read-outs stand apart in the source and are kept apart here.

System: HIV-1 (IIIB) in MT-4 cells
Test: microbe, parasite or virus in culture
Assay type: cell-based
Conditions: HIV-1, read-out: MT4 EC50
Procedure: Compounds were serially diluted (1:3) in DMSO on 384-well polypropylene plates and further diluted 200-fold into complete RPMI media (10% FBS, 1% P/S) using the Biotek Micro Flow and Agilent ECHO acoustic dispenser. Each plate contained up to 8 test compounds, with negative (No Drug Control) and 5 uM AZT positive controls. MT-4 cells were pre-infected with 10 uL of either RPMI (mock-infected) or a fresh 1:250 dilution of an HIV-1 (IIIB) concentrated virus stock. Infected and uninfected MT-4 cells were further diluted in complete RPMI media and added to each plate using a Micro Flow dispenser. After 5 days incubation in a humidified and temperature controlled incubator (37° C.), Cell Titer Glo (Promega) was added to the assay plates to quantify the amount of luciferase.

[1] = Human immunodeficiency virus 1, IIIB, MT4, MT-4 cells

| SMILES | EC50 [1] [nM] | EC50 (MT-4 cells) [nM] |
| --- | --- | --- |
| CC(C)(C)C[C@]1(c2ccc(-c3cnn(C(F)F)c3)cc2)NC(=N)N([C@H](COC(=O)N2CC(F)(F)C2)c2ccc(Cl)c(-c3ncn[nH]3)c2)C1=O [Compound 67] | 20.8 | – |
| CC(C)(C)C[C@]1(c2ccc(-c3cnn(C(F)F)c3)cc2)NC(=N)N([C@H](COC(=O)NC(C)(C)C)c2ccc(Cl)c(-c3ncn[nH]3)c2)C1=O [Compound 68] | 21.6 | – |
| CC(C)(C)C[C@]1(c2ccc(-c3cnn(C(F)F)c3)cc2)NC(=N)N([C@H](COC(=O)NC(C)(C)C(F)F)c2ccc(Cl)c(-c3ncn(C(F)F)n3)c2)C1=O [Compound 69] | 32.6 | – |
| CC(C)(C)C[C@]1(c2ccc(-c3cnn(C(F)F)c3)cc2)NC(=N)N([C@H](COC(=O)NC2(C)CC2)c2ccc(Cl)c(-c3ncn(C(F)F)n3)c2)C1=O [Compound 70] | 29.4 | – |
| CC(C)(C)C[C@]1(c2ccc(-c3cnn(C(F)F)c3)cc2)NC(=N)N([C@H](COC(=O)NC2(C(F)(F)F)CC2)c2ccc(Cl)c(C#N)c2)C1=O [Compound 71] | 324 | – |
| CC(C)(C)C[C@]1(c2ccc(-c3cnn(C(F)F)c3)cc2)NC(=N)N([C@H](COC(=O)N2CC(C)(C)C2)c2ccc(Cl)c(-c3ncn[nH]3)c2)C1=O [Compound 75] | 30.5 | – |
| CC(C)(C)C[C@]1(c2ccc(-c3cnn(C(F)F)c3)cc2)NC(=N)N([C@H](COC(=O)N2CC(C)(F)C2)c2ccc(Cl)c(-c3ncn[nH]3)c2)C1=O [Compound 76] | 34.8 | – |
| CC(C)(C)C[C@]1(c2ccc(-c3cnn(C4CC4)c3)cc2)NC(=N)N([C@H](COC(=O)N2CC(F)(F)C2)c2ccc(Cl)c(-c3ncn[nH]3)c2)C1=O [Compound 77] | 38.9 | – |
| CC(C)(C)C[C@]1(c2ccc(-c3cnn(C4CC4)c3)cc2)NC(=N)N([C@H](COC(=O)NC(C)(C)C(F)F)c2ccc(Cl)c(-c3ncn[nH]3)c2)C1=O [Compound 79] | 64.5 | – |
| CC(C)(C)C[C@]1(c2ccc(-c3cnn(C(F)F)c3)cc2)NC(=N)N([C@H](COC(=O)N(CC(F)F)C2CC2)c2ccc(Cl)c(-c3ncn[nH]3)c2)C1=O [Compound 80] | 28.8 | – |
| CN(C)C(=O)OC[C@H](c1ccc(Cl)c(-c2ncn[nH]2)c1)N1C(=N)N[C@](CC(C)(C)C)(c2ccc(-c3cnn(C(F)F)c3)cc2)C1=O [Compound 81] | 31.6 | – |
| CC(C)(C)C[C@]1(c2ccc(-c3cnn(C(F)F)c3)cc2)NC(=N)N([C@H](COC(=O)N2CC3(COC3)C2)c2ccc(Cl)c(-c3ncn[nH]3)c2)C1=O [Compound 82] | 180 | – |
| CC(C)(C)C[C@]1(c2ccc(-c3cnn(C(F)F)c3)cc2)NC(=N)N([C@H](COC(=O)N2CC(C(F)(F)F)C2)c2ccc(Cl)c(-c3ncn[nH]3)c2)C1=O [Compound 83] | 33.4 | – |
| CC(C)(C)C[C@]1(c2ccc(-c3cnn(C(F)F)c3)cc2)NC(=N)N([C@H](COC(=O)N2CC(S(C)(=O)=O)C2)c2ccc(Cl)c(-c3ncn[nH]3)c2)C1=O [Compound 84] | 1050 | – |
| CC(C)(C)C[C@]1(c2ccc(-c3cnn(C(F)F)c3)cc2)NC(=N)N([C@H](COC(=O)N2CC(C)(C#N)C2)c2ccc(Cl)c(-c3ncn[nH]3)c2)C1=O [Compound 85] | 112 | – |
| CC(C)(C)C[C@]1(c2ccc(-c3cnn(C(F)F)c3)cc2)NC(=N)N([C@H](COC(=O)N2CCC2)c2ccc(Cl)c(-c3ncn[nH]3)c2)C1=O [Compound 86] | 35.4 | – |
| CC(C)(C)C[C@]1(c2ccc(-c3cnn(C(F)F)c3)cc2)NC(=N)N([C@H](COC(=O)N2CC3(CC3)C2)c2ccc(Cl)c(-c3ncn[nH]3)c2)C1=O [Compound 87] | 38.5 | – |
| CC1CCN1C(=O)OC[C@H](c1ccc(Cl)c(-c2ncn[nH]2)c1)N1C(=N)N[C@](CC(C)(C)C)(c2ccc(-c3cnn(C(F)F)c3)cc2)C1=O (some centres unmarked) [Compound 88] | 24.3 | – |
| CC(C)(C)C[C@]1(c2ccc(-c3cnn(C(F)F)c3)cc2)NC(=N)N([C@H](COC(=O)N2CC3(CCO3)C2)c2ccc(Cl)c(-c3ncn[nH]3)c2)C1=O [Compound 92] | 113 | – |
| CC(C)(C)C[C@]1(c2ccc(-c3cnn(C(F)F)c3)cc2)NC(=N)N([C@H](COC(=O)NC2(C(F)F)CC2)c2ccc(Cl)c(-c3ncn[nH]3)c2)C1=O [Compound 93] | 105 | – |
| CC(C)(C)C[C@]1(c2ccc(-c3cnn(C(F)F)c3)cc2)NC(=N)N([C@H](COC(=O)NC2COC2)c2ccc(Cl)c(-c3ncn[nH]3)c2)C1=O [Compound 94] | 341 | – |
| CC(C)(C)C[C@]1(c2ccc(-c3cnn(C(F)F)c3)cc2)NC(=N)N([C@H](COC(=O)N(CC(F)(F)F)C2CC2)c2ccc(Cl)c(-c3ncn[nH]3)c2)C1=O [Compound 95] | 30.4 | – |
| [2H]C([2H])([2H])n1cnc(-c2cc([C@@H](COC(=O)NC(C)(C)C(F)F)N3C(=N)N[C@](C[C@@]4(C)CC4(F)F)(c4ccc(-c5cnn(C(F)F)c5)cc4)C3=O)ccc2Cl)n1 [Compound 96] | 83.7 | – |
| [2H]C([2H])([2H])n1cnc(-c2cc([C@@H](COC(=O)NC(C)(C)C(F)F)N3C(=N)N[C@](CC4(C)CC4)(c4ccc(-c5cnn(C(F)F)c5)cc4)C3=O)ccc2Cl)n1 [Compound 98] | 52 | – |

| SMILES | EC50 [1] [nM] | EC50 (MT-4 cells) [nM] |
| --- | --- | --- |
| CC(C)(C)C[C@]1(c2ccc(-c3cnn(C(F)F)c3)cc2)NC(=N)N([C@H](COC(=O)N2CC(C(F)F)C2)c2ccc(Cl)c(-c3ncn[nH]3)c2)C1=O [Compound 99] | 65.7 | – |
| CC(C)(F)C[C@]1(c2ccc(-c3cnn(C(F)F)c3)cc2)NC(=N)N([C@H](COC(=O)N2CC(F)(F)C2)c2ccc(Cl)c(-c3ncn[nH]3)c2)C1=O [Compound 101] | 65.9 | – |
| CC(C)(C)C[C@]1(c2ccc(-c3cnn(C(F)F)c3)cc2)NC(=N)N([C@H](COC(=O)NC(C)(CO)CO)c2ccc(Cl)c(-c3ncn[nH]3)c2)C1=O [Compound 102] | 196 | – |
| CC(C)(C)C[C@]1(c2ccc(-c3ncccn3)cc2)NC(=N)N([C@H](COC(=O)N2CC(F)(F)C2)c2ccc(Cl)c(-c3ncn[nH]3)c2)C1=O [Compound 104] | 33.5 | – |
| CC(C)(C)C[C@]1(c2ccc(-c3cnn(C4COC4)c3)cc2)NC(=N)N([C@H](COC(=O)NC(C)(C)C)c2ccc(Cl)c(-c3ncn[nH]3)c2)C1=O [Compound 106] | 101 | – |
| CC(C)(C)C[C@]1(c2ccc(-c3cnn(C(F)F)c3)cc2)NC(=N)N([C@H](COC(=O)Nc2ccccc2)c2ccc(Cl)c(-c3ncn[nH]3)c2)C1=O [Compound 107] | 49.1 | – |
| CC(C)(C)C[C@]1(c2ccc(-c3cnn(C(F)F)c3)cc2)NC(=N)N([C@H](COC(=O)Nc2ccccn2)c2ccc(Cl)c(-c3ncn[nH]3)c2)C1=O [Compound 108] | 85.8 | – |
| CC(C)(C)C[C@]1(c2ccc(-c3cnn(C(F)F)c3)cc2F)NC(=N)N([C@H](COC(=O)N2CC(F)(F)C2)c2ccc(Cl)c(-c3ncn[nH]3)c2)C1=O [Compound 111] | 40.4 | – |
| CC(C)(C)C[C@]1(c2ccc(-c3ncccn3)cc2F)NC(=N)N([C@H](COC(=O)NC2(C(F)(F)F)CC2)c2ccc(Cl)c(-c3ncn[nH]3)c2)C1=O [Compound 112] | 40.4 | – |
| CC(C)(C)C[C@]1(c2ccc(-c3cnn(C(F)F)c3)cc2F)NC(=N)N([C@H](COC(=O)NC(C)(C)C)c2ccc(Cl)c(-c3ncn[nH]3)c2)C1=O [Compound 114] | 40.6 | – |
| CC(C)(C)C[C@]1(c2ccc(-c3cnn(C(F)F)c3)cc2)NC(=N)N([C@H](COC(=O)NC(C)(C)C(F)(F)F)c2ccc(Cl)c(-c3ncnn3C(F)F)c2)C1=O [Compound 115] | 11.7 | – |
| CC(C)(C)C[C@]1(c2ccc(-c3ccccn3)cc2F)NC(=N)N([C@H](COC(=O)NC2(C(F)(F)F)CC2)c2ccc(Cl)c(-c3ncn[nH]3)c2)C1=O [Compound 116] | 42.6 | – |
| CC(C)(C)C[C@]1(c2ccc(-c3ncccn3)cc2)NC(=N)N([C@H](COC(=O)NC2(C(F)(F)F)CC2)c2ccc(Cl)c(-c3ncnn3C(F)F)c2)C1=O [Compound 117] | 6.81 | – |
| CC(C)(C)C[C@]1(c2ccc(-c3cnc(C#N)nc3)cc2)NC(=N)N([C@H](COC(=O)NC2(C(F)(F)F)CC2)c2ccc(Cl)c(-c3ncnn3C(F)F)c2)C1=O [Compound 118] | 16.4 | – |
| CC(C)(C)C[C@]1(c2ccc(-c3cnsc3)cc2)NC(=N)N([C@H](COC(=O)NC2(C(F)(F)F)CC2)c2ccc(Cl)c(-c3ncnn3C(F)F)c2)C1=O [Compound 119] | 10.3 | – |
| CC(C)(C)C[C@]1(c2ccc(-c3ccn4ccnc4c3)cc2)NC(=N)N([C@H](COC(=O)NC2(C(F)(F)F)CC2)c2ccc(Cl)c(-c3ncnn3C(F)F)c2)C1=O [Compound 120] | 27.8 | – |
| CC(C)(C)C[C@]1(c2ccc(-c3cnc4ccccn34)cc2)NC(=N)N([C@H](COC(=O)NC2(C(F)(F)F)CC2)c2ccc(Cl)c(-c3ncnn3C(F)F)c2)C1=O [Compound 121] | 21 | – |
| CC(C)(C)C[C@]1(c2ccc(-c3cnc(C(F)(F)F)nc3)cc2)NC(=N)N([C@H](COC(=O)NC2(C(F)(F)F)CC2)c2ccc(Cl)c(-c3ncnn3C(F)F)c2)C1=O [Compound 122] | 25.4 | – |
| CC(C)(C)C[C@]1(c2ccc(-c3cnn(C(F)F)c3)cc2)NC(=N)N([C@H](COC(=O)NC2(C(F)(F)F)CC2)c2ccc(F)c(-c3ncnn3C(F)F)c2)C1=O [Compound 123] | 28.1 | – |
| CC(C)(C)C[C@H]1C(=O)N([C@H](COC(=O)NC(C)(C)C(F)F)c2ccc(F)c(-c3ncnn3C(F)F)c2)C(=N)N1c1ccc(-c2cnn(C(F)F)c2)cc1 [Compound 124] | – | 65.3 |
| CC(C)(C)C[C@]1(c2ccc(-c3ncccn3)cc2)NC(=N)N([C@H](COC(=O)NC(C)(C)C(F)F)c2ccc(Cl)c(-c3ncnn3C(F)F)c2)C1=O [Compound 125] | 12 | – |
| CC(C)(F)C[C@]1(c2ccc(Br)cc2)NC(=N)N([C@H](COC(=O)NC(C)(C)C(F)F)c2ccc(Cl)c(-c3ncnn3C(F)F)c2)C1=O [Compound 126] | 242 | – |
| CC(C)(F)C[C@]1(c2ccc(-c3ncccn3)cc2)NC(=N)N([C@H](COC(=O)NC(C)(C)C(F)F)c2ccc(Cl)c(-c3ncnn3C(F)F)c2)C1=O [Compound 127] | 27.5 | – |
